Measured values taken from ChEMBL document CHEMBL5032532, “Synthesis of xanthosine 2-phosphate diesters via phosphitylation of the carbonyl group” (Bioorg Med Chem Lett, 2021).

What was measured:
[1] = Chemical stability in PBS buffer at pH 4.8 assessed as compound hydrolysis at 20 mM measured after 7 hrs by RP-HPLC analysis; assay type: physicochemical; conditions: read-out: Drug degradation
[2] = Chemical stability in human serum assessed as compound hydrolysis at 20 mM measured upto 8 hrs by RP-HPLC analysis; assay type: physicochemical, cell-free; conditions: 20000 µM
[3] = Chemical stability in PBS buffer at pH 6.8 assessed as compound hydrolysis at 20 mM measured after 7 hrs by RP-HPLC analysis; assay type: physicochemical; conditions: read-out: Drug degradation
[4] = Chemical stability in PBS buffer at pH 11.1 assessed as compound hydrolysis at 20 mM measured upto 8 hrs by RP-HPLC analysis; assay type: physicochemical; conditions: pH 11.1, 8 h, 20000 µM

**Q.** For CCN(CC)CC.O=c1[nH]c(OP(=O)(O)Oc2ccccc2)nc2c1ncn2[C@@H]1O[C@H](CO)[C@@H](O)[C@H]1O, which degraded at 7 h, 20000 µM [1] is on record?
**A.** 50%

**Q.** And the Stability [2]?
**A.** Unstable

**Q.** What about the degraded at 7 h, 20000 µM [3] of the same compound?
**A.** 40%

**Q.** What about the Stability [4] of the same compound?
**A.** Stable
